Experimental data taken from ChEMBL document CHEMBL1201862, “PubChem BioAssay data set” (2004).
Active and inactive are the calls of the source.

How the values were obtained:
[1] = Luminescent dose response cell-based high throughput screening assay for inhibitors of the Janus kinase 2 mutant JAK2V617F. [Related pubchem assays: 1446 (Primary screen.), 1521 (Confirmation assay.), 1486 (Counter screen.)]; format: functional
[2] = biological target: Aryl hydrocarbon receptor (Homo sapiens, UniProt P35869); test: Luminescence-based cell-based high throughput dose response assay for activators of the Aryl Hydrocarbon Receptor (AHR). [Related pubchem assays: 2796 (Primary screen (AHR activators in singlicate)), 2845 (Confirmation screen (AHR activators in triplicate)), 434939 (Counterscreen (PXR activators in triplicate)), 2804 (Summary (AHR activators))]; format: ADME
[3] = biological target: T1, Replicative DNA helicase DnaB (Mycobacterium tuberculosis, UniProt P9WMR3); test: DnaB intein splicing inhibitors, dose response, biochemical, cell-free fluorescence (AID 449749); format: functional
T1 sequence (P9WMR3 whole entry): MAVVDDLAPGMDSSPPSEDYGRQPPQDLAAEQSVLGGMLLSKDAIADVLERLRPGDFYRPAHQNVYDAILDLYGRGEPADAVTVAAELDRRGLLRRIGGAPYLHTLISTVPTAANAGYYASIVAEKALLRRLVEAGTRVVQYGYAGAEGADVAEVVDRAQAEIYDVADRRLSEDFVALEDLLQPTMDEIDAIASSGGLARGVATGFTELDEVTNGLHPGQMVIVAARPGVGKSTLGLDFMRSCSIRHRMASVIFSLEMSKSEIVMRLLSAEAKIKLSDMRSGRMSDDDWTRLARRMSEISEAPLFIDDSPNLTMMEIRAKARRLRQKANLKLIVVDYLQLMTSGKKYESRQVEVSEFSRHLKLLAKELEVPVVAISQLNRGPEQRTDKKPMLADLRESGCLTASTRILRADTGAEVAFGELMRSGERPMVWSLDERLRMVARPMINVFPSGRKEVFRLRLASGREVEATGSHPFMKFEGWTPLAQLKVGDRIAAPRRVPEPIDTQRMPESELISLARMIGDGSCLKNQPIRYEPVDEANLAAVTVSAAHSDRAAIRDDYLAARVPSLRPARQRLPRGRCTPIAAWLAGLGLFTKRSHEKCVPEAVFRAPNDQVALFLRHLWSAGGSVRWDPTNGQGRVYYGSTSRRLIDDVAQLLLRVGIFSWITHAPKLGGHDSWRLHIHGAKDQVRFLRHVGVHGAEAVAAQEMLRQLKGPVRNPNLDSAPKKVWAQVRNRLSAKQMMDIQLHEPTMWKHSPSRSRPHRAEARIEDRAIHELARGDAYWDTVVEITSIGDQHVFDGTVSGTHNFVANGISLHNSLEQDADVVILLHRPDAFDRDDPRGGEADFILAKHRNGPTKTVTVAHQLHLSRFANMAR

[4] = Luminescence Cell-Based Dose Confirmation HTS to Identify Activators of 5'UTR Stem-Loop Driven Alpha-Synuclein mRNA Translation in H4 Neuroglioblastoma Cells. [Related pubchem assays: 1829 (Project Summary), 1814 (Primary HTS)]; format: functional
[5] = biological target: Peroxisome proliferator-activated receptor gamma/Nuclear receptor corepressor 2 (Homo sapiens, UniProt P37231+Q9Y618); test: Counterscreen for NR2E3 inverse agonists: TR-FRET-based biochemical high throughput dose response assay to identify inverse agonists of the interaction between peroxisome proliferator-activated receptor gamma (PPARg) and nuclear receptor co-repressor 2 (NCOR2).; format: functional
Nonstructural protein 1 = Nonstructural protein 1 (Influenza A virus, UniProt Q194T2); format: functional, Influenza A virus (A/California/07/2009(H1N1))
Protein RecA = biological target: T2, Protein RecA (Mycobacterium tuberculosis, UniProt P9WHJ3); test: Fluorescence Cell-Free Homogeneous Dose Retest to Identify Inhibitors of RecA-Intein Splicing Activity. [Related pubchem assays (depositor defined):AID2097, AID2223, AID489010, AID492950]; format: functional
T2 sequence (P9WHJ3 whole entry): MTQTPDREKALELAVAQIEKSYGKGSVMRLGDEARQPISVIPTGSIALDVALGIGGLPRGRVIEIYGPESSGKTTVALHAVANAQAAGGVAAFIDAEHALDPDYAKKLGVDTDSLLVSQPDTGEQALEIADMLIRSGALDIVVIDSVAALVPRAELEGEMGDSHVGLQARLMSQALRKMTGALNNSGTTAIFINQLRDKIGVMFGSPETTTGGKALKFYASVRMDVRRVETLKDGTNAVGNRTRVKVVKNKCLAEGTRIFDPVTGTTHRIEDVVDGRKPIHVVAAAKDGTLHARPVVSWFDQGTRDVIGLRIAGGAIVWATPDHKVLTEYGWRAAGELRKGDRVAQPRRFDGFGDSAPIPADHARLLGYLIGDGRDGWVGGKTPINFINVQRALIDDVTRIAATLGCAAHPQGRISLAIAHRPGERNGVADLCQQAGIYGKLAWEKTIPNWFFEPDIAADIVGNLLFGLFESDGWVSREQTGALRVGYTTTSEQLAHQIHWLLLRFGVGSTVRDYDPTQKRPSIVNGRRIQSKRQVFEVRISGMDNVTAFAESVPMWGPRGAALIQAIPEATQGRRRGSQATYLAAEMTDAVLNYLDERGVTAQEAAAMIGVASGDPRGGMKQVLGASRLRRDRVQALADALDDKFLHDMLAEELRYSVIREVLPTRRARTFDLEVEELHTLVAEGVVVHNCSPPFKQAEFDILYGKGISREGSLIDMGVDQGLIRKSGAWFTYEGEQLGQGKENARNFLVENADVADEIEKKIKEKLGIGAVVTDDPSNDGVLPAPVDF

[6] = biological target: T3, Sentrin-specific protease 8 (Homo sapiens, UniProt Q96LD8); format: functional
T3 sequence (Q96LD8 whole entry): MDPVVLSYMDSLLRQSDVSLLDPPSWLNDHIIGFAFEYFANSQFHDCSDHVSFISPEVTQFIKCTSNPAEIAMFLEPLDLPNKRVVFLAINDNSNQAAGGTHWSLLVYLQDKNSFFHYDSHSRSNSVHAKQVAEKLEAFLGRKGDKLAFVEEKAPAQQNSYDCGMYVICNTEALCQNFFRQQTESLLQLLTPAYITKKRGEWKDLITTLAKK

[7] = Luminescence Cell-Based Dose Response HTS to Identify Activators of Luciferase Translation or Activity in H4 […] Cells. [Related pubchem assays: 1829 (Project Summary), 1814 (Primary HTS)]; format: functional
[8] = biological target: Photoreceptor-specific nuclear receptor (Homo sapiens, UniProt Q9Y5X4); test: ligands suppressing NR2E3 nuclear receptor activity – biochemical, TR-FRET, dose response (AID 463256); format: functional
[9] = biological target: T3, Sentrin-specific protease 8; format: functional; remark: listed apart in the source
[10] = NIH3T3 cell viability loss – ATP luminescence, mouse fibroblasts, counter-screen, dose response (AID 2010); format: functional, cell-based;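 further: cells exposed to compound for about 90 hours before reading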
Caspase-3 = biological target: T4, Caspase-3 (Homo sapiens, UniProt P42574); test: Dose-response confirmation of uHTS inhibitor hits of Sentrin-Specific Protease 8 in a Caspase-3 Fluorescence assay.; format: functional
T4 sequence (P42574 whole entry): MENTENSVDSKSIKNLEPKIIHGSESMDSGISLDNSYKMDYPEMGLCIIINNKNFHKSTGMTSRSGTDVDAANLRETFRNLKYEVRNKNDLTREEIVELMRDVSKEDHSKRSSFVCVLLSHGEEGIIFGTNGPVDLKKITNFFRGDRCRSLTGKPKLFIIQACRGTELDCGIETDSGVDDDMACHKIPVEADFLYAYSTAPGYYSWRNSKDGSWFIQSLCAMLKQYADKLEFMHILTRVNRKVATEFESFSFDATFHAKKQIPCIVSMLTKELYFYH

H4 = test: Luminescence Cell-Based Dose Response HTS to Identify Activators of 5'UTR Stem-Loop Driven Prion Protein mRNA Translation in H4 Neuroglioblastoma Cells. [Related pubchem assays: 1829 (Project Summary), 1814 (Primary HTS)]; format: functional; settings: Homo sapiens
[11] = Trypanosoma cruzi growth suppression in host cells – NIH3T3 host cells, beta-gal luminescence, confirmation (AID 2044); format: functional, cell-based;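 further: intracellular parasites grown in NIH/3T3 mouse fibroblasts as host cells; luminescent beta-galactosidase reporter signal from transgenic T. cruzi replicating inside host cells; inhibitors lower the luminescence signal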
[12] = biological target: 5-hydroxytryptamine receptor 1A (Homo sapiens, UniProt P08908); format: functional
5-hydroxytryptamine receptor 1A, sequence (P08908 whole entry): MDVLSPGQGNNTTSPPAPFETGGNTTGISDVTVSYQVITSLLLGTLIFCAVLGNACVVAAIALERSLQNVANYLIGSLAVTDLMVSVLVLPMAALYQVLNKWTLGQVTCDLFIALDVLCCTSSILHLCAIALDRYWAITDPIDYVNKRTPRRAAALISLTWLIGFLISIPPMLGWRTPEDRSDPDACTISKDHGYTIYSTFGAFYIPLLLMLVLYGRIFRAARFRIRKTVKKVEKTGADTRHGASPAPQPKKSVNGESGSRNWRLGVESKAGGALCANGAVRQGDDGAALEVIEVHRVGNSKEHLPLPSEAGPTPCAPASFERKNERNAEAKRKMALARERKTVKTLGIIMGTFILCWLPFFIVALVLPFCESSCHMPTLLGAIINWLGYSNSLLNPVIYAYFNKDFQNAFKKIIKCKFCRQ

Nonstructural protein 1, sequence (Q194T2 whole entry): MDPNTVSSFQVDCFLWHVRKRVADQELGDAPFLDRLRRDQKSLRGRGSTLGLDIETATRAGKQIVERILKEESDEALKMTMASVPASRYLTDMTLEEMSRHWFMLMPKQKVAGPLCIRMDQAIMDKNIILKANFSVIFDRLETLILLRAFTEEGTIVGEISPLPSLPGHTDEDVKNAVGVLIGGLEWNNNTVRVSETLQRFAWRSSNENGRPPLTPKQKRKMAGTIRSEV
Aryl hydrocarbon receptor, sequence (P35869 whole entry): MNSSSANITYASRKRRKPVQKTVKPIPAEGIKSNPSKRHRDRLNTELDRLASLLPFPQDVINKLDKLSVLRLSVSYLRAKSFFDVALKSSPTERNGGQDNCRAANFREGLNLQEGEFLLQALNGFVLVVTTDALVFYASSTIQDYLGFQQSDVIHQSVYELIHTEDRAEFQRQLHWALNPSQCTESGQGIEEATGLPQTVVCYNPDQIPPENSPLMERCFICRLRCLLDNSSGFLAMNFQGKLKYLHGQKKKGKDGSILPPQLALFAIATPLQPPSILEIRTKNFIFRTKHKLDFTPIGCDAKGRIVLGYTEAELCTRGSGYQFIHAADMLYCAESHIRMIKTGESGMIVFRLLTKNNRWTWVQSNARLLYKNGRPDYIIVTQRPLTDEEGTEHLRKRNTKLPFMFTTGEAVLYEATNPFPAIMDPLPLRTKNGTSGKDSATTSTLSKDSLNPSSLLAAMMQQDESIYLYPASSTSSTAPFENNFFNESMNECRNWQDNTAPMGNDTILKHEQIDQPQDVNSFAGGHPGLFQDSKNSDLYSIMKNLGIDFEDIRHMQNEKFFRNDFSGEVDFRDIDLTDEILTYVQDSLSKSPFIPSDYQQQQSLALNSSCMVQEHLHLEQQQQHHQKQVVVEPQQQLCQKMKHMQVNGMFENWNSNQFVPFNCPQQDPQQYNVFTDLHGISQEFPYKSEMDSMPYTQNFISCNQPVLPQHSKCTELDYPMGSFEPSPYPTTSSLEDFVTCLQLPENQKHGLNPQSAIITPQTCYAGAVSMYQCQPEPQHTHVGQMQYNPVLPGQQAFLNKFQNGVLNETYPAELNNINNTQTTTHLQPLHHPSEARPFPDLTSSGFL
Photoreceptor-specific nuclear receptor, sequence (Q9Y5X4 whole entry): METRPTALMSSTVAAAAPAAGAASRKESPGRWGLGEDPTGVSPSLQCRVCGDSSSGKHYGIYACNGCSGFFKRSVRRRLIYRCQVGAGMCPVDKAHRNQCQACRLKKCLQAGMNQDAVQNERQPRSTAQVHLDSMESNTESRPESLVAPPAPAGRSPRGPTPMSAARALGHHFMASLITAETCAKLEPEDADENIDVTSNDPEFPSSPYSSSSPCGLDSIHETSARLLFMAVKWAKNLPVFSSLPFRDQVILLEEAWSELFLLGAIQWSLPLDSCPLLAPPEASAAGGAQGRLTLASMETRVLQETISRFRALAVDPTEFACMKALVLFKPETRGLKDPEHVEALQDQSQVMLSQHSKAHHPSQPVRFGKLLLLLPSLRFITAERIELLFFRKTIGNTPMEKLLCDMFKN
Peroxisome proliferator-activated receptor gamma/Nuclear receptor corepressor 2, sequence (P37231 whole entry): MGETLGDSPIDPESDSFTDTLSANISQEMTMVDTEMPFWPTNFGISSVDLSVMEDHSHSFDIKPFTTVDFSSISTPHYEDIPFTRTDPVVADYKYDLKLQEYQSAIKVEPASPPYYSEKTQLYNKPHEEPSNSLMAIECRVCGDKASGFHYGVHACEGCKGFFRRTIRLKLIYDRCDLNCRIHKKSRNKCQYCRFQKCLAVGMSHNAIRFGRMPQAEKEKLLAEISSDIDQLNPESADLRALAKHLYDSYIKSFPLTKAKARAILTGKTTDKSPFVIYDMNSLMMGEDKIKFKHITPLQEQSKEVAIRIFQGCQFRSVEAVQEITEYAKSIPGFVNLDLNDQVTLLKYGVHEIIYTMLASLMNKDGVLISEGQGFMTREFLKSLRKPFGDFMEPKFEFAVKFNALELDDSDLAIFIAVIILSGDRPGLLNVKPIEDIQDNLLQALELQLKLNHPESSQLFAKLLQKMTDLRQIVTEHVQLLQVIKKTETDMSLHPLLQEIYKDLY
Peroxisome proliferator-activated receptor gamma/Nuclear receptor corepressor 2, sequence (Q9Y618 whole entry): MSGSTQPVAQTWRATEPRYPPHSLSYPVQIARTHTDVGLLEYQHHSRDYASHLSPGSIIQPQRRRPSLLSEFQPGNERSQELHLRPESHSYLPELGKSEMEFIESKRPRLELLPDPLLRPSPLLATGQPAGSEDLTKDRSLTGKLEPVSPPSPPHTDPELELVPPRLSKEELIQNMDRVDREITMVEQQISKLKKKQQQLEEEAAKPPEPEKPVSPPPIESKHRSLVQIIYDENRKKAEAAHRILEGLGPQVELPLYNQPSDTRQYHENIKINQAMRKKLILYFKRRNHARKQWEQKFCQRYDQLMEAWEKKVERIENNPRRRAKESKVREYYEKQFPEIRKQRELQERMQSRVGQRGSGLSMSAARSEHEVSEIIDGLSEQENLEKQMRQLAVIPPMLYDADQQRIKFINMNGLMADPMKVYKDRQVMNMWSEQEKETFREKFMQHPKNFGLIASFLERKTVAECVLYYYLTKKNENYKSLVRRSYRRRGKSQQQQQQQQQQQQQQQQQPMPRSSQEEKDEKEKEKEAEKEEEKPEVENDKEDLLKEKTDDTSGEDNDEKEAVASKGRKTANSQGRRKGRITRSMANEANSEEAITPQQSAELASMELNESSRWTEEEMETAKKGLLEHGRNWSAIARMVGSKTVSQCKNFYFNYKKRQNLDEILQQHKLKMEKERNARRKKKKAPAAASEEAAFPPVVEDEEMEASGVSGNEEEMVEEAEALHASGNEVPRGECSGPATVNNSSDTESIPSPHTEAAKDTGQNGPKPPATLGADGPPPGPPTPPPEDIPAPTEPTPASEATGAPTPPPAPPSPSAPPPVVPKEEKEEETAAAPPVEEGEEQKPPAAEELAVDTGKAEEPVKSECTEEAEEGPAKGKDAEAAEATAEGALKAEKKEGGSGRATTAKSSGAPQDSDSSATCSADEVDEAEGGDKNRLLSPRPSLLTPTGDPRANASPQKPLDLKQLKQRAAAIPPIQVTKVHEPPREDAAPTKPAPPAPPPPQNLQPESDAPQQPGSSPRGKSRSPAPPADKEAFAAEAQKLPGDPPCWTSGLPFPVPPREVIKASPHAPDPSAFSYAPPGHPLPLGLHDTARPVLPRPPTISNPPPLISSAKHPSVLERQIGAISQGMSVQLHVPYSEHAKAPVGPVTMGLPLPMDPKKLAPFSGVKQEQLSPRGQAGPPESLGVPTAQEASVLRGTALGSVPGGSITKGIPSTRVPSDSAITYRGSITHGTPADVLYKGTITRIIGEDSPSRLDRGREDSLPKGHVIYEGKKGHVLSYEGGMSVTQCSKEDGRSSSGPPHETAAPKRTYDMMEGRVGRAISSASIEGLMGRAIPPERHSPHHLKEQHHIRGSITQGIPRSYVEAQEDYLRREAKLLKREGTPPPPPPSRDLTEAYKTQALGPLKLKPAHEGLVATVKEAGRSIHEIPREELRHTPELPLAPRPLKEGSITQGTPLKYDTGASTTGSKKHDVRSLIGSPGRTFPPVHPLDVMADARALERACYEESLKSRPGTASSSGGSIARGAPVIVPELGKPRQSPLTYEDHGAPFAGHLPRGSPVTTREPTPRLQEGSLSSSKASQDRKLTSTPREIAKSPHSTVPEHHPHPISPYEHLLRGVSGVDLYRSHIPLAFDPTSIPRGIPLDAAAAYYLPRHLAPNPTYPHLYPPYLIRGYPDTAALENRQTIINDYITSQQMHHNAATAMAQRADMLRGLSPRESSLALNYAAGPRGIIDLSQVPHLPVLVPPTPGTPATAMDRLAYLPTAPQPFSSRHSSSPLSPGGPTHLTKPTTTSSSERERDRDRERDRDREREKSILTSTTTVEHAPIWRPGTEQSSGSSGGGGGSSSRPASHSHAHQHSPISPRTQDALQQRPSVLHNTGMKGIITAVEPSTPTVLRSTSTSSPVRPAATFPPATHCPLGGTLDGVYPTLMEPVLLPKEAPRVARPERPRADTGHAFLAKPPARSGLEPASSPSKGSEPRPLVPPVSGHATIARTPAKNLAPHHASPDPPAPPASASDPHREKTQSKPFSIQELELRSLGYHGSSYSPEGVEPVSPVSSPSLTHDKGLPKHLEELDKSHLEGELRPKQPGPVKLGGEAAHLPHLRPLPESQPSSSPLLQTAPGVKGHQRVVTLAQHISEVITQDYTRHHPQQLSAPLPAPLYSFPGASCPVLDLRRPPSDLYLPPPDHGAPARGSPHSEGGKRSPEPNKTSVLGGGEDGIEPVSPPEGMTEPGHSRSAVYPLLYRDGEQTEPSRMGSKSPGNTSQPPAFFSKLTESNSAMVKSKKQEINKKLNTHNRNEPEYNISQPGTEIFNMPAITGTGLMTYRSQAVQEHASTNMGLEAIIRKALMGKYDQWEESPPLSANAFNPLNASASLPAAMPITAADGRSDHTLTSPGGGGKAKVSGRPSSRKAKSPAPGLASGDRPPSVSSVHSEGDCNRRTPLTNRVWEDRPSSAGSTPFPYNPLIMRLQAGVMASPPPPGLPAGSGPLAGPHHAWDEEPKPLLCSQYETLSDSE

For `CC(C)(C)OC(=O)N[C@@H](Cc1ccccc1)c1nnc(S(=O)(=O)Cc2cccc(F)c2)o1`, the IC50 [1] was 0.788 µM (active).
With `NNc1nc(O)c2c3c(sc2n1)-c1ccccc1CC3` the EC50 [2] was 0.373 µM (active).
With `Cc1ccc(S(=O)(=O)NC(=O)Nc2ccc(N(C)C)cc2)cc1` the AC50 [3] was > 380 µM (inactive), the EC50 [4] was 7.5 µM (active) and the IC50 [5] was 0.503 µM (active). For the same compound, the IC50 (Nonstructural protein 1) was 44.1 µM (active), the EC50 (Protein RecA) was 5.18 µM (active) and the IC50 [6] was 7.02 µM (active). For the same compound, the EC50 [7] was 13 µM (active), the IC50 [8] was 0.748 µM (active) and the IC50 [9] was 7.83 µM (active). For the same compound, the EC50 [10] was > 60 µM (not active), the IC50 (Caspase-3) was 18.1 µM (active) and the EC50 (H4) was 1.97 µM (active). For the same compound, the EC50 [11] was 1.39 µM (active).
With `CCCCN(C)CCCNC(=O)Cn1c(=O)sc2ccccc21` the EC50 [12] was > 50 µM (not active).
